Experimental data as given in patent US20130337070A1, “Coated Nanoparticle Therapy for Skin Cancer” (University of Central Florida Research Foundation Inc., priority 2012, published 2013).

Tests used:
Caveolin-1 = Caveolin-1 expression, western blot; type: cell-based, human; details: for caveolin-1 expression after pretreatment, compared to CNP treated cells: melanoma cells pretreated with N-acetyl-L-cysteine (4 h) or apocynin (1 h), then CNP
Procedure: FIG. 6 Expression of Caveolin-1 in melanoma cells. […] H2O2 was used as a positive control and a-tubulin as a loading control. Three independent experiments were performed.

cytochrome c = assay: Cytosolic cytochrome c, western blot; details: A375; CNP 12 and 24 h; H2O2 1 h; vs mock-treated controls
A375 melanoma cells [1] = assay: Carbonylated proteins in cells (OxyBlot); details: A375, 150 μM CNP 4-48 h or 250 μM H2O2
A375 melanoma cells [2] = assay: Oxidized thiol groups (sulfenic acid), western blot; details: A375, 150 μM CNP 24 h or 1 mM H2O2 2 h, vs dimedone treated controls
A375 melanoma cells [3] = assay: Extracellular hydrogen peroxide (Amplex Red); type: cell-based, human; details: A375, 1 h pre-incubation with 1 mM apocynin prior to CNP; 24 and 48 h
Procedure: The Amplex Red reagent (10-acetyl-3,7-dihydroxyphenoaxine), in combination with horseradish peroxidase (HRP), can be used to detect hydrogen peroxide released from cells. H2O2-mediated oxidation of the reagent results in the fluorescent product resorufin. Subconfluent A375 tumor cells were treated with 150 μM CNP or pre-incubated with 1 mM apocynin in serumfree DMEM in 96-well plates for different time points. […] Furthermore, the generation of intracellular ROS was determined using 2?,7?-Dichlorodihydrofluorescein diacetate (H2DCF-DA), a dye that diffuses across the lipid membranes into cells and is subsequently oxidized by intracellular ROS forming the highly fluorescent DCF.

[4] = tested on: human dermal fibroblasts (HDF); assay: Intracellular ROS (DCF fluorescence), fibroblasts; details: 150 μM CNP or 5 μM doxorubicin, DCF over 90 min
A375 melanoma cells [5] = assay: Intracellular ROS (DCF fluorescence), melanoma cells; details: A375, 5 μM doxorubicin, DCF over 90 min
caspase-3 = assay: Caspase-3 activity assay; type: cell-based, human; details: melanoma cells, 100 nM staurosporine 24 h, positive control
Procedure: Cell pellets were suspended in cell lysis buffer and incubated on ice for 45 min. The lysate was vortexed every 15 min. After centrifugation at 11000×g for 15 min, supernatants were collected and immediately measured for protein concentration and caspase activity. Briefly, cell lysates (20 μg protein) were placed in 96-well plates and then the specific caspase substrate (Ac-DEVD-AMC for caspase-3) was added. Plates were incubated at 37° C. for 1 h and caspase activity was determined by fluorescence intensity with the excitation and emission wavelengths set at 380 nm and 440 nm, respectively.

[6] = tested on: human dermal fibroblasts (HDF)
Procedure: (§1) The activity of mitochondrial dehydrogenases, as indicator of cellular viability, results in the formation of a purple formazan dye. […] The medium was removed and the cells were lysed in dimethyl sulfoxide. The formazan formation was measured at 570 nm.

[7] = tested on: human endothelial cells (HMEC-1)
Procedure: as §1

OO [H2O2, hydrogen peroxide]
Cav-1 expression vs mock-treated control (Caveolin-1; melanoma cells, CNP for 1 h, H2O2 for 1 h and 4 h): completely abrogated
cytosolic cytochrome c (cytochrome c): significant increase
amount of carbonylated proteins vs mock-treated cells (A375 melanoma cells [1]): significantly increased
oxidized thiols (sulfenic acid) (A375 melanoma cells [2]): similarlevel

CC(=O)N[C@@H](CS)C(=O)O [N-acetyl-L-cysteine]
caveolin-1 expression after pretreatment, compared to CNP treated cells (Caveolin-1): increased caveolin-1 expression

COc1cc(C(C)=O)ccc1O [apocynin]
CNP mediated hydrogen peroxide generation after apocynin pre-incubation (A375 melanoma cells [3]): downregulated
caveolin-1 expression after pretreatment, compared to CNP treated cells (Caveolin-1): increased caveolin-1 expression

COc1cccc2c1C(=O)c1c(O)c3c(c(O)c1C2=O)C[C@@](O)(C(=O)CO)C[C@@H]3O[C@H]1C[C@H](N)[C@H](O)[C@H](C)O1 [doxorubicin]
intracellular ROS level [4]: significantly increased
intracellular ROS level (A375 melanoma cells [5]): significantly increased

CN[C@@H]1C[C@H]2O[C@@](C)([C@@H]1OC)n1c3ccccc3c3c4c(c5c6ccccc6n2c5c31)C(=O)NC4 [staurosporine]
caspase-3 activity (caspase-3): increased

dextran-coated cerium oxide nanoparticles [CNP]
cell viability [6]: not altered
cell viability [7]: not altered
